Data: the NIST ThermoML archive (doi:10.1016/j.jct.2006.07.002)
± gives the expanded uncertainty stated by the source.

Assays:
[1] = 293.15 K; 101.33 kPa; Liquid
[2] = refractive index (Na D-line) (dimensionless); conditions: 293.15 K; 101.33 kPa; Liquid; Standard Abbe refractometry
[3] = Boiling temperature at pressure P; conditions: Liquid, Distillation

Structure (SMILES) | mass density [1] [kg/m3] | refractive index [2] | Boiling temperature at pressure P ([3]; 1.733 kPa) [°C] | Boiling temperature at pressure P ([3]; 101.33 kPa) [°C]
COC(=O)CCCCC(=O)OC [dimethyl 1,6-hexanedioate] | 1061.72 ± 0.67 | 1.42825 ± 0.0007 | 115 ± 1 | –
CCCC(=O)O [butanoic acid] | 952.8 ± 0.58 | 1.3975 ± 0.0007 | – | –
COC(=O)CCC(=O)OC [dimethyl 1,4-butanedioate] | 1119.13 ± 2.3 | 1.41969 ± 0.00078 | – | 196.1 ± 0.2
COC(=O)CCCC(=O)OC [dimethyl pentanedioate] | 1087.67 ± 0.76 | 1.42454 ± 0.0007 | – | 214.2 ± 0.2
